The values below come from patent US20230050653A1, “ROCK INHIBITOR AND PREPARATION METHOD THEREFOR AND USE THEREOF” (WUHAN LL SCIENCE AND TECHNOLOGY DEVELOPMENT CO., LTD., priority 2019, published 2023).

pIC50: −log10 of the molar value. A value given as a limit tells only on which side of the number the result lay.

One assay has as its target T1, ROCK1 kinase (Homo sapiens, UniProt Q13464).
T1 construct: purchased Invitrogen
Nature of the assay: In vitro evaluation of ROCK1 kinase selectivity (HTRF KinEASE-STK time-resolved fluorometric assay). Format: biochemical. The procedure: ROCK1 activity was detected using a 96-well (Cisbio) time-resolved fluorometric assay. The assay for ROCK1 was performed in the following assay buffer: 5 mM MgCl2 (Sigma), 1 mM DTT (Sigma) and 1× kinase buffer. The kinase buffer was used for dilution. 7.5 μL of ROCK1 kinase (Invitrogen) was added to a 96-well microplate to reach a final concentration of 0.4 ng/μL, and then 0.25 μL of test compound (DMSO content: 1%) was added. The mixture was incubated at room temperature for 0.5 h. To start the reaction, the kinase buffer was also used to mix ATP (Aladdin) and the substrate STK-substrate 2-biotin. 7.5 μL of the mixed solution was added to the microplate to reach final concentrations of 3.53 μM and 1 μM. The resulting mixture was incubated for 2 h at room temperature. […] was mixed with STK antibody-Cryptate, and then an appropriate volume of the mixture was mixed with an equal volume of streptavidin-XL665. 10 μL of the resulting mixture was added to stop the reaction. After further incubation for about 1 h, the microplate was read on a Molecular Devices SpectraMax i3x multifunctional microplate reader. The kinase buffer, the STK-substrate 2-biotin, the detection buffer, the STK antibody-Cryptate, and the streptavidin-XL665 were all from HTRF KinEASE-STK kit (Cisbio, 1000 tests, 61[…]).
Background: TR-FRET usually uses a lanthanide donor and a delayed reading to cut background.

A further assay has as its target T2, ROCK2 kinase (Homo sapiens, UniProt O75116).
T2 construct: purchased Invitrogen PV3759
Nature of the assay: In vitro evaluation of ROCK2 kinase activity (HTRF KinEASE-STK time-resolved fluorometric assay). It counts as biochemical. The procedure:
ROCK2 activity screening. ROCK2 activity was detected using a 96-well (Cisbio) time-resolved fluorometric assay. The assay for ROCK2 was performed in the following assay buffer: 5 mM MgCl2 (Sigma), 1 mM DTT (Sigma) and 1× kinase buffer. The kinase buffer was used for dilution. 7.5 μL of ROCK2 kinase (Invitrogen, PV3759) was added to a 96-well microplate to reach a final concentration of 0.4 ng/μL, and then 0.25 μL of test compound (DMSO content: 1% (volume fraction)) was added. The mixture was incubated at room temperature for 0.5 h. To start the reaction, the kinase buffer was used to mix ATP (Aladdin) and the substrate STK-substrate 2-biotin. 7.5 μL of the mixed solution was added to the microplate to reach final concentrations of 6.739 μM and 1 μM. The resulting mixture was incubated for 2 h at room temperature. 5 mL of detection buffer was mixed with STK antibody-Cryptate, and then an appropriate volume of the mixture was mixed with an equal volume of streptavidin-XL665. 10 μL of the resulting mixture was added to the microplate to stop the reaction. After further incubation for about 1 h, the microplate was read on a Molecular Devices SpectraMax i3x multifunctional microplate reader. The kinase buffer, the STK-substrate 2-biotin, the detection buffer, the STK antibody-Cryptate, and the streptavidin-XL665 were all from HTRF KinEASE-STK kit (Cisbio, 1000 tests, 61[…]).

T2 sequence (O75116 whole entry): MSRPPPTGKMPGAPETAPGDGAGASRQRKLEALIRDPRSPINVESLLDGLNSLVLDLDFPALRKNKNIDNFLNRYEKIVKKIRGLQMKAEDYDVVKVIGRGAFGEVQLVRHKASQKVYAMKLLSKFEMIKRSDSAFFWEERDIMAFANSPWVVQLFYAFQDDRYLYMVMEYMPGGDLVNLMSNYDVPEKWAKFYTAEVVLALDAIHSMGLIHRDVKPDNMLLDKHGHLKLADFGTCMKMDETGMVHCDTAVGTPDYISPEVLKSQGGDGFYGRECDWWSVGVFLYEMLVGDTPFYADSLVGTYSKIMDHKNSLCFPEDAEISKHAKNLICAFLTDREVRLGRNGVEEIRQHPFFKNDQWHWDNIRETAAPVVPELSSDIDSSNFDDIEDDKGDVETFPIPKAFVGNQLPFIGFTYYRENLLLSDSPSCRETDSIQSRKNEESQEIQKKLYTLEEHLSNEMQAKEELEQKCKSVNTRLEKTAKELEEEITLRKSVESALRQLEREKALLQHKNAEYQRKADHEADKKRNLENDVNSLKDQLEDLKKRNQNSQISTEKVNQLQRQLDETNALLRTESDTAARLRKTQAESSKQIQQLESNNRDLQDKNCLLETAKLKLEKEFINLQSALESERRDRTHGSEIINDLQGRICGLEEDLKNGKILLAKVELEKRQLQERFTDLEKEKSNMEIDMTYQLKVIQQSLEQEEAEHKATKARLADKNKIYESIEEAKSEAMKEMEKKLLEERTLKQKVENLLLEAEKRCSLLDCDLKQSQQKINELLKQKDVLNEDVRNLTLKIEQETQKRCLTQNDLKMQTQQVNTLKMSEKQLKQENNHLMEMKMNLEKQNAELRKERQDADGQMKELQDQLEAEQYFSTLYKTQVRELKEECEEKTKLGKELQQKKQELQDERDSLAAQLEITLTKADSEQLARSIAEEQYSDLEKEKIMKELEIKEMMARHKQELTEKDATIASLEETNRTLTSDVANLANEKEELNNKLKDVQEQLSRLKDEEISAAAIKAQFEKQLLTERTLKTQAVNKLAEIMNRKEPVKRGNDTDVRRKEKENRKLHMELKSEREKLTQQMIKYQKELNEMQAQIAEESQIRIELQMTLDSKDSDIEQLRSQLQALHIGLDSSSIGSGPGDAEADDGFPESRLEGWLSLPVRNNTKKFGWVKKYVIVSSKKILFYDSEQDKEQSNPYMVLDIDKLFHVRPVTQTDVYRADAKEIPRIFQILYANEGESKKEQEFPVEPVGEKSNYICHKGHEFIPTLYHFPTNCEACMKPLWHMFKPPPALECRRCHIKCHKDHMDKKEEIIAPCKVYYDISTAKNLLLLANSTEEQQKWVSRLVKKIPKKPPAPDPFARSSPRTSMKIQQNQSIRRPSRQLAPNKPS
T1 sequence (Q13464 whole entry): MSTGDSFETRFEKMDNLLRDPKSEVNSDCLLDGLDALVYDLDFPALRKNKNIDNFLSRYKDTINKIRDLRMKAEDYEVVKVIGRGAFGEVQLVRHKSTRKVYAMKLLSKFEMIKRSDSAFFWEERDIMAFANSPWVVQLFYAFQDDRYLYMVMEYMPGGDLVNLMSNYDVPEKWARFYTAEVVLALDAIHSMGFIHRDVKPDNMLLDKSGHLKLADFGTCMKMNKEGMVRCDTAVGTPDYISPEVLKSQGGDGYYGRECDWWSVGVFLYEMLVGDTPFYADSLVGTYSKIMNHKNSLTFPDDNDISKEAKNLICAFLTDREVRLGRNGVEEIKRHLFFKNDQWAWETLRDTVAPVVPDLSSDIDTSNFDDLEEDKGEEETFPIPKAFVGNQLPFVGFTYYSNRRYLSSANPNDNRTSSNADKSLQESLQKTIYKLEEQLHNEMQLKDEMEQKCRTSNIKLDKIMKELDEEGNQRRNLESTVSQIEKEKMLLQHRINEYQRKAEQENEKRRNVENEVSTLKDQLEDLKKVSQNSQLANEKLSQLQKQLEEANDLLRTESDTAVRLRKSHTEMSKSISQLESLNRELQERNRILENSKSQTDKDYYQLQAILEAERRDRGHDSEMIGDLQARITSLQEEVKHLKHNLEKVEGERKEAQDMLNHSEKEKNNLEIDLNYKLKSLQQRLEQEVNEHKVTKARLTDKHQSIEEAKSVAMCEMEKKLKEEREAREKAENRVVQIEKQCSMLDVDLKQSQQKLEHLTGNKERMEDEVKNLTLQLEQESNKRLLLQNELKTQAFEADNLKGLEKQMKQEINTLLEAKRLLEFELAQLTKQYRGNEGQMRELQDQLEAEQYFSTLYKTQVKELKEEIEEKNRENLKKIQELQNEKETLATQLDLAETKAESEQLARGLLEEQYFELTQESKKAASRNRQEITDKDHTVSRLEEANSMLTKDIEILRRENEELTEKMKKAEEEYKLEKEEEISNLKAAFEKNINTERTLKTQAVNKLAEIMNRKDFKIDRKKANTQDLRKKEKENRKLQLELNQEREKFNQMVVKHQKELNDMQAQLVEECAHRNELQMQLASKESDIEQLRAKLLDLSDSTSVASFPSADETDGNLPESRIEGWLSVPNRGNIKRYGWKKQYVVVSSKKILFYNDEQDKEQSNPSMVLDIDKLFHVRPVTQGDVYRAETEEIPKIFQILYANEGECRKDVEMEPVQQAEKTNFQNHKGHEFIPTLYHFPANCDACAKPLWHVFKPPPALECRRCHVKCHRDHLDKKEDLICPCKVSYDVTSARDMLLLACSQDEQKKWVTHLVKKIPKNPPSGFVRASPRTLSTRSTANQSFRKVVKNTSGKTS

As to `COc1cc(F)cc(CNC(=O)N2CCc3cc(-c4cn[nH]c4)cnc32)c1` [Compound T218, N-(3-fluoro-5-methoxybenzyl)-5-(1H-pyrazol-4-yl)-2,3-dihydro-1H-pyrrolo(2,3-b)pyridine-1-carboxamide], the pIC50 – broadly, −log10 of the IC50, conventionally taken in molar units – at ROCK1 kinase is 6.30 to 7.30; against ROCK2 kinase, 5.30 to 6.30.
As for `CN(C)C[C@H](NC(=O)N1CCc2cc(-c3c[nH]nc3F)c(F)cc21)c1cc(F)cc(F)c1` [Compound T366-R, (R)-N-(1-(3,5-difluorophenyl)-2-(dimethylamino)ethyl)-6-fluoro-5-(3-fluoro-1H-pyrazol-4-yl)indoline-1-carboxamide], the pIC50 was 5.30 to 6.30 against ROCK1 kinase and 6.30 to 7.30 at ROCK2 kinase.
For the compound `COc1cc(F)cc(CNC(=O)N2CCc3cc(-c4cn[nH]c4F)ccc32)c1` [Compound T342, 5-(5-fluoro-1H-pyrazol-4-yl)-N-(3-fluoro-5-methoxybenzyl)indoline-1-carboxamide], the pIC50 against ROCK1 kinase and against ROCK2 kinase was not below 7.30 each time.
On to `CN1CC(NC(=O)c2cccc(CNC(=O)N3CCc4cc(-c5cn[nH]c5)c(F)cc43)c2)C1` [Compound T379, 6-fluoro-N-(3-((1-methylazetidin-3-yl)carbamoyl)benzyl)-5-(1H-pyrazol-4-yl)indoline-1-carboxamide], for which the pIC50 against ROCK1 kinase and at ROCK2 kinase was not below 7.30 each time.
In the case of `CCOc1cc(F)cc([C@@H](CO)NC(=O)N2CCc3cc(-c4cn[nH]c4)c(F)cc32)c1` [Compound T390, (S′)-N-(1-(3-ethoxy-5-fluorophenyl)-2-hydroxyethyl)-6-fluoro-5-(1N-pyrazol-4-yl)indoline-1-carboxamide], the pIC50 is 6.30 to 7.30 on ROCK1 kinase and not below 7.30 at ROCK2 kinase.
The like results for `COc1cc(F)cc(CNC(=O)N2CCc3nc(-c4cn[nH]c4)ncc32)c1` [Compound T231] were, in that order, not below 7.30 and not below 7.30.
The like results for `COc1cc(F)cc([C@@H](CO)NC(=O)N2CCc3cc(-c4c[nH]nc4F)c(F)cc32)c1` [Compound T374, (S)-6-fluoro-5-(3-fluoro-1H-pyrazol-4-yl)-N-(1-(3-fluoro-5-methoxyphenyl)-2-hydroxyethyl)indoline-1-carboxamide] were, in that order, not below 7.30 and not below 7.30.
On the same counts, the results for `COc1cc(F)cc(C(CN)NC(=O)N2CCc3cc(-c4cn[nH]c4)c(F)cc32)c1` (centres unmarked) [Compound T371, N-(2-amino-1-(3-fluoro-5-methoxyphenyl)ethyl)-6-fluoro-5-(1H-pyrazol-4-yl)indoline-1-carboxamide] are not below 7.30 and not below 7.30.
Take `O=C(N[C@H](CN1CC(F)(F)C1)c1cc(F)cc(F)c1)N1CCc2cc(-c3c[nH]nc3F)c(F)cc21` [Compound T340]: the pIC50 at ROCK1 kinase was 6.30 to 7.30; on ROCK2 kinase, not below 7.30.
As to `COc1cc(F)cc(C(C)NC(=O)N2CCc3cc(-c4cn[nH]c4)c(F)cc32)c1` (centres unmarked) [Compound T341, 6-fluoro-N-(1-(3-fluoro-5-methoxyphenyl)ethyl)-5-(1H-pyrazol-4-yl)indoline-1-carboxamide], the pIC50 on ROCK1 kinase and on ROCK2 kinase was not below 7.30 each time.
Consider `COc1cc(F)cc(CNC(=O)N2CCc3nc(-c4cn[nH]c4)ccc32)c1` [Compound T220, N-(3-fluoro-5-methoxybenzyl)-5-(1H-pyrazol-4-yl)-2,3-dihydro-1H-pyrrolo(3,2-b)pyridine-1-carboxamide], for which the pIC50 against ROCK1 kinase and at ROCK2 kinase was 6.30 to 7.30 throughout.
On to `O=C(NCc1ccccc1)N1CCc2cc(-c3ccc4[nH]ccc4c3)ccc21` [Compound T246], for which the pIC50 at ROCK1 kinase and on ROCK2 kinase was 5.30 to 6.30 each time.
With `COc1cc(F)cc([C@@H](CO)NC(=O)c2cnc3cc(-c4cn[nH]c4)ccn23)c1` [Compound T352, (S)-N-(1-(3-fluoro-5-methoxyphenyl)-2-hydroxyethyl)-7-(1H-pyrazol-4-yl)imidazo(1,2-a)pyridine-3-carboxamide], the pIC50 at ROCK1 kinase and against ROCK2 kinase was not below 7.30 each time.
`COc1cc(F)cc(CN(Cc2ccccc2)C(=O)N2CCc3cc(-c4cn[nH]c4)ccc32)c1` [Compound T243]: the pIC50 on ROCK1 kinase and at ROCK2 kinase was 5.30 to 6.30 in each case.
`COc1cc(F)cc([C@@H](CO)NC(=O)N2CCc3cc(-c4c[nH]nc4Cl)c(F)cc32)c1` [Compound T359, (S)-5-(3-chloro-1H-pyrazol-4-yl)-6-fluoro-N-(1-(3-fluoro-5-methoxyphenyl)-2-hydroxyethyl)indoline-1-carboxamide]: the pIC50 was 6.30 to 7.30 against ROCK1 kinase and not below 7.30 against ROCK2 kinase.
On to `Cn1cc(CNC(=O)N2CCc3cc(-c4cn[nH]c4)ccc32)cn1` [Compound T241], for which the pIC50 on ROCK1 kinase and against ROCK2 kinase was 6.30 to 7.30 in each case.
In the case of `O=C(NCc1ccn[nH]1)N1CCc2cc(-c3cn[nH]c3)ccc21` [Compound T240], the pIC50 against ROCK1 kinase and against ROCK2 kinase was 5.30 to 6.30 each time.
With `COc1cc(F)cc(CN(C(=O)N2CCc3cc(-c4cn[nH]c4)ccc3C2)C2CCOCC2)c1` [Compound T216], the pIC50 on ROCK1 kinase and on ROCK2 kinase was 6.30 to 7.30 throughout.
As to `O=C(COc1cc(F)cc([C@@H](CO)NC(=O)N2CCc3cc(-c4cn[nH]c4)c(F)cc32)c1)NC1CC(F)(F)C1` [Compound T369, (S)-N-(1-(3-(2-((3,3-difluorocyclobutyl)amino)-2-oxoethoxy)-5-fluorophenyl)-2-hydroxyethyl)-6-fluoro-5-(1H-pyrazol-4-yl)indoline-1-carboxamide], the negative logarithm of the IC50 (pIC50) against ROCK1 kinase and against ROCK2 kinase was not below 7.30 throughout.
As for `O=C(NCc1cccc(OCC2CC2)c1)c1ncn2cc(-c3cn[nH]c3)ccc12` [Compound T376, N-(3-(cyclopropylmethoxy)benzyl)-6-(1H-pyrazol-4-yl)imidazo[1,5-a]pyridine-1-carboxamide], the results for the pIC50 on ROCK1 kinase and at ROCK2 kinase were 5.30 to 6.30 and 6.30 to 7.30, respectively.
Consider `COc1cc(F)cc([C@@H](CO)NC(=O)N2CCc3cc(-c4c[nH]nc4C)c(F)cc32)c1` [Compound T381, (S)-6-fluoro-N-(1-(3-fluoro-5-methoxyphenyl)-2-hydroxyethyl)-5-(3-methyl-1H-pyrazol-4-yl)indoline-1-carboxamide], for which the pIC50 on ROCK1 kinase and against ROCK2 kinase was not below 7.30 in each case.
For the compound `COc1cc(F)cc([C@@H](CO)NC(=O)c2ncc3cc(-c4cn[nH]c4)ccn23)c1` [Compound T373, (5)-N-(1-(3-fluoro-5-methoxyphenyl)-2-hydroxyethyl)-7-(1H-pyrazol-4-yl)imidazo[1,5-a]pyridine-3-carboxamide], the pIC50 on ROCK1 kinase and at ROCK2 kinase was not below 7.30 each time.
For `O=C(NCc1cccc(F)c1)c1ncn2cc(-c3cn[nH]c3)ccc12` [Compound T368, N-(3-fluorobenzyl)-6-(1H-pyrazol-4-yl)imidazo[1,5-a]pyridine-1-carboxamide], the pIC50 is 5.30 to 6.30 against ROCK1 kinase and 6.30 to 7.30 against ROCK2 kinase.
On the same counts, the results for `Cn1cnc(CNC(=O)N2CCc3cc(-c4cn[nH]c4)ccc32)c1` [Compound T242] are 6.30 to 7.30 and 6.30 to 7.30.
The like results for `CN(C)CCC(NC(=O)N1CCc2cc(-c3cn[nH]c3)ccc21)c1ccccc1` (centres unmarked) [Compound T248] were, in that order, 6.30 to 7.30 and 6.30 to 7.30.
